Results as given in patent US20230364057A1, “BACTERIAL DNA GYRASE INHIBITORS AND METHODS OF USE THEREOF” (THE FLORIDA INTERNATIONAL UNIVERSITY BOARD OF TRUSTEES, priority 2022, published 2023).
pIC50: −log10 of the molar value. ≈ marks a conversion by molar mass, not a printed value. Where two headings read alike, the source gives them in different places.

Columns and labels:
MRSA = experiment: Minimum inhibitory concentration, broth microdilution; conditions: for MIC: Staphylococcus aureus, MRSA
E. coli DNA gyrase [1] = molecular target: T1, E. coli DNA gyrase (Escherichia coli (strain K12), UniProt P0AES4+P0AES6); experiment: biochemical; type: biochemical
S. aureus (ATCC 14775) = experiment: Minimum inhibitory concentration, broth microdilution; conditions: for MIC: Staphylococcus aureus
Description: (§1) Antibacterial minimum inhibitory concentrations (MICs) were obtained from three independent experiments using broth microdilution methods in 96-well plates according to Clinical and Laboratory Standards Institute guidelines. Cells were culture from singles colonies in MHIIB medium for 24 h at 37° C. in agitation (200 RPM). The cultures were then diluted using the same media to reach an OD600 of 0.1. Then, 50 µL of the diluted cultures were added to the plates holding 50 µL of serially diluted compounds in MHIIB. The plates were incubated at 37° C. for 20 h. The starting inoculum was fixated to 10^5 colony-forming units per ml.

E. coli DNA gyrase [2] = molecular target: T1, E. coli DNA gyrase; experiment: Agarose gel-based DNA gyrase inhibition assay; type: biochemical
Description: 100 ng of DNA gyrase was used to supercoil the rx pAB1 in the presence of different concentrations of a gyrase inhibitor. […] Samples were analyzed by electrophoresis in 1% w/v agarose gels followed by ethidium bromide staining and photographed under UV light.

B. subtilis (ATCC 6633) = experiment: Minimum inhibitory concentration, broth microdilution; conditions: Bacillus subtilis, ATCC6633, read-out: Minimum Inhibitory Concentration B.subtilis
Description: as §1

Mtb DNA gyrase = Mtb DNA gyrase (Mycobacterium tuberculosis (strain ATCC 25618 / H37Rv), UniProt P9WG45+P9WG47); experiment: Mtb DNA gyrase inhibition assay (gel-based); type: biochemical; conditions: Table 5, Mtb gyrase; read-out: IC50 (µM) Mtb
Description: The IC50 against E. coli (A) and Mtb (C) gyrase were determined using the gel-based gyrase inhibition assays. The gyrase mediated DNA cleavage assays (B and D) were performed using pBR322. (A) 229 inhibits E. coli gyrase. Lane 1, rx pAB1. […] Lane 1, rx pAB1. […] 100 µM of CPDs were used. Symbols rx, nk, In, and sc represent relaxed, nicked, linear, and supercoiled DNA, respectively.
Agarose gel-based DNA gyrase inhibition assays were performed in 30 µL of 1 ×gyrase buffer (35 mM Tris-HCl, 24 mM KCl, 4 mM MgCl2, 2 mM DTT, 1.75 mM ATP, 0.1 mg/mL BSA, 6.5% glycerol, pH7.5) containing 400 ng of rx pAB1 at 37° C. 100 ng of DNA gyrase was used to supercoil the rx pAB1 in the presence of different concentrations of a gyrase inhibitor. After 15 minutes of incubation with the inhibitor at 37° C., all reactions were stopped with 1 µL of stop solution (3% SDS and 250 mM EDTA). Samples were analyzed by electrophoresis in 1% w/v agarose gels followed by ethidium bromide staining and photographed under UV light.

Mtb = Mtb whole cell assay (% inhibition, MIC); type: cell-based, Mycobacterium tuberculosis; conditions: Mycobacterium tuberculosis; Table 5 (same values in Table 6 at 20 µM)
[3] = read-out: Minimum Inhibitory Concentration S.aureus MRSA
[4] = IC50 ([…]-50 µM), bin of Table 2
[5] = ATCC14775, read-out: Minimum Inhibitory Concentration S.aureus
[6] = IC50 (µM) EC, Table 5, E. coli gyrase
[7] = ATCC14775, read-out: MIC (µM) SA
[8] = IC50 (50-200 µM), bin of Table 2
[9] = IC50 (15-[…] µM), bin of Table 2
[10] = IC50 against E. coli DNA gyrase

SMILES	MIC (MRSA; [3]) [µM]	MIC (S. aureus (ATCC 14775); [5]) [µM]	inhibition of E. coli DNA gyrase activities (E. coli DNA gyrase [2]; 200 µM of compounds)	MIC (B. subtilis (ATCC 6633)) [µM]	inhibition of E. coli DNA gyrase activities (E. coli DNA gyrase [2]; 50 µM of compounds)	further results
Cc1ccccc1NC1=C/C(=N/S(=O)(=O)c2ccc(C(=O)O)cc2)c2ccccc2C1=O [Compound 4]	50 (≈ 22.3 µg/mL)	50 (≈ 22.3 µg/mL)	completely inhibited	100 (≈ 44.6 µg/mL)		pIC50 (E. coli DNA gyrase [1]; [4]): 4.30 to 4.60
Cc1cc(C)c2c(c1)C(=NNc1ccc(C(=O)O)cc1)C(O)=N2 [Compound 9, 4-[2-(5,7-Dimethyl-2-oxoindol-3-yl)hydrazinyl]benzoic acid]	3.12 (≈ 0.967 µg/mL)	3.12 (≈ 0.967 µg/mL)	completely inhibited	25 (≈ 7.73 µg/mL)	completely inhibited	growth of MRSA (MRSA): strongly inhibited the growth; inhibition of E. coli DNA gyrase activities (E. coli DNA gyrase [1]): potent gyrase inhibitor; growth of S. aureus (S. aureus (ATCC 14775)): strongly inhibited the growth
Cc1cc(/C=C2\SC(=S)N=C2O)c(C)n1-c1cccc(O)c1 [Compound 21]			completely inhibited	100 (≈ 33 µg/mL)	completely inhibited	pIC50 (E. coli DNA gyrase [1]; [4]): 4.30 to 4.60
Cc1c(CCC(=O)O)c(=O)oc2cc3occ(-c4ccc(Cl)cc4)c3cc12 [Compound 25]			completely inhibited		almost completely inhibited	IC50 (Mtb DNA gyrase): 65 µM; inhibition of E. coli DNA gyrase activities (E. coli DNA gyrase [1]): potent bacterial DNA gyrase inhibitors; IC50 (E. coli DNA gyrase [1]; [6]): 11.5 µM; MIC (S. aureus (ATCC 14775); [7]): > 200 µM; inhibition at 20 µM (Mtb): 0.8%
O=C(O)CCCCCN1C(=O)/C(=C\c2ccc(-c3ccc(Cl)cc3)o2)SC1=S [Compound 36]			completely inhibited	12.5 (≈ 5.45 µg/mL)	completely inhibited	
O=C(O)CCCN1C(=O)C(=Cc2ccc(-c3nc4ccccc4s3)o2)SC1=S [Compound 41]			completely inhibited	6.25 (≈ 2.69 µg/mL)	completely inhibited	
O=C1/C(=C\c2ccc(O)cc2)SC(=S)N1Cc1ccccc1 [Compound 44]	25 (≈ 8.19 µg/mL)	12.5 (≈ 4.09 µg/mL)	completely inhibited	25 (≈ 8.19 µg/mL)		pIC50 (E. coli DNA gyrase [1]; [8]): 3.70 to 4.30
CN1C[C@H](CNC(=O)OCc2ccccc2)C[C@@H]2c3cccc4c3c(cn4C)C[C@H]21 [Compound 45]	100 (≈ 40.4 µg/mL)	100 (≈ 40.4 µg/mL)	almost completely inhibited	100 (≈ 40.4 µg/mL)		pIC50 (E. coli DNA gyrase [1]; [8]): 3.70 to 4.30
COC(=O)c1c(NC(=O)CC2Nc3ccccc3NC2=O)sc(C)c1C (stereo not shown) [Compound 55]	25 (≈ 9.34 µg/mL)		almost completely inhibited			pIC50 (E. coli DNA gyrase [1]; [8]): 3.70 to 4.30
Cc1ccc(-c2csc(NC(=O)c3cccc(C)c3)c2C(=O)O)cc1 [Compound 58]	100 (≈ 35.1 µg/mL)	100 (≈ 35.1 µg/mL)	completely inhibited	100 (≈ 35.1 µg/mL)		pIC50 (E. coli DNA gyrase [1]; [8]): 3.70 to 4.30
O=C(O)c1cc(O)c2c(c1)C(=O)c1cccc(O)c1C2=O [Compound 82]		50 (≈ 14.2 µg/mL)	almost completely inhibited	50 (≈ 14.2 µg/mL)		pIC50 (E. coli DNA gyrase [1]; [8]): 3.70 to 4.30
CCc1ccc(S(=O)(=O)/N=C2/C=C(Nc3ccc(C(=O)O)cc3)C(=O)c3ccccc32)cc1 [Compound 104]	100 (≈ 46.1 µg/mL)	100 (≈ 46.1 µg/mL)		50 (≈ 23 µg/mL)	completely inhibited	pIC50 (E. coli DNA gyrase [1]; [4]): 4.30 to 4.60
COc1cccc(-n2c(C)cc(/C=C3/C(=N)N4C(=NC3=O)SN=C4[S+](C)[O-])c2C)c1 (stereo not shown) [Compound 105]	100 (≈ 44.2 µg/mL)	50 (≈ 22.1 µg/mL)		25 (≈ 11 µg/mL)	completely inhibited	pIC50 (E. coli DNA gyrase [1]; [4]): 4.30 to 4.60
CNc1nnc(-c2ccc(C)cc2)c2ccccc12 [Compound 108]	200 (≈ 49.9 µg/mL)	200 (≈ 49.9 µg/mL)			completely inhibited	IC50 (E. coli DNA gyrase [1]; [9]): 15 to 25 µM
O=C(O)c1ccc(NN=C2c3cc(Br)ccc3NC2O)cc1 (stereo not shown) [Compound 111]				100 (≈ 36.2 µg/mL)	completely inhibited	
Cc1c(CC(=O)O)c(=O)oc2c(C)c3occ(-c4ccc(Br)cc4)c3cc12 [Compound 117]	1.56 (≈ 0.667 µg/mL)	1.56 (≈ 0.667 µg/mL)			completely inhibited	IC50 (Mtb DNA gyrase): 50 µM; MIC (MRSA; read-out: MIC (µM) MRSA): 1.6 µM (≈ 0.684 µg/mL); IC50 (E. coli DNA gyrase [1]; [6]): 15.7 µM; MIC (S. aureus (ATCC 14775); [7]): 1.6 µM (≈ 0.684 µg/mL); inhibition at 20 µM (Mtb): 24.7%
Cc1c(C)c2cc3c(-c4ccc(Br)cc4)coc3c(C)c2oc1=O [Compound 118]						IC50 (Mtb DNA gyrase): > 200 µM; MIC (MRSA; read-out: MIC (µM) MRSA): > 200 µM; IC50 (E. coli DNA gyrase [1]; [6]): > 200 µM; MIC (S. aureus (ATCC 14775); [7]): > 200 µM; inhibition at 20 µM (Mtb): 21.8%

SMILES	MIC (MRSA; [3]) [µM]	MIC (S. aureus (ATCC 14775); [5]) [µM]	inhibition of E. coli DNA gyrase activities (E. coli DNA gyrase [2]; 200 µM of compounds)	MIC (B. subtilis (ATCC 6633)) [µM]	inhibition of E. coli DNA gyrase activities (E. coli DNA gyrase [2]; 50 µM of compounds)	further results
Cc1c(CCC(=O)O)c(=O)oc2c(C)c3occ(-c4ccc(Cl)cc4)c3cc12 [Compound 120]	1.56 (≈ 0.619 µg/mL)	1.56 (≈ 0.619 µg/mL)			completely inhibited	IC50 (Mtb DNA gyrase): 33 µM; MIC (MRSA; read-out: MIC (µM) MRSA): 1.6 µM (≈ 0.635 µg/mL); IC50 (E. coli DNA gyrase [1]; [6]): 7.9 µM; MIC (S. aureus (ATCC 14775); [7]): 1.6 µM (≈ 0.635 µg/mL); inhibition at 20 µM (Mtb): 18.7%
O=C(O)c1ccc(/N=N/C2C(O)=Nc3ccc(Cl)cc32)cc1 (stereo not shown) [Compound 126]	100 (≈ 31.6 µg/mL)	100 (≈ 31.6 µg/mL)		100 (≈ 31.6 µg/mL)	completely inhibited	
Cc1ccc2nc3n(c2c1C)C/C(=C/c1ccc(-c2ccccc2C(=O)O)o1)[S+]3[O-] (stereo not shown) [Compound 155]	50 (≈ 20.9 µg/mL)	100 (≈ 41.8 µg/mL)		50 (≈ 20.9 µg/mL)	completely inhibited	IC50 (E. coli DNA gyrase [1]; [9]): 15 to 25 µM
O=C(O)C(Cc1ccccc1)N1C(=O)/C(=C\C=C\c2ccco2)SC1=S (stereo not shown) [Compound 157]	200 (≈ 77.1 µg/mL)	200 (≈ 77.1 µg/mL)		200 (≈ 77.1 µg/mL)	completely inhibited	
O=[N+]([O-])c1cc(/C=N/Nc2nc3ccccc3[nH]2)c(O)cc1O [Compound 159]	100 (≈ 31.3 µg/mL)	50 (≈ 15.7 µg/mL)		200 (≈ 62.7 µg/mL)	completely inhibited	
CN1C(=O)C(=Cc2ccc(Sc3ccccc3)o2)C(=O)N(C)C1=S [Compound 161]				200 (≈ 71.7 µg/mL)	completely inhibited	IC50 (E. coli DNA gyrase [1]; [9]): 15 to 25 µM
O=C(/C=C/c1ccco1)Nc1cccc2cccnc12 [Compound 164]	200 (≈ 52.9 µg/mL)	200 (≈ 52.9 µg/mL)				
O=C1N=C(O)/C(=C/c2ccc(N3CCCC3)cc2)C(=O)N1Cc1ccc(F)cc1 [Compound 184]	200 (≈ 78.7 µg/mL)	200 (≈ 78.7 µg/mL)			potently inhibited	IC50 (E. coli DNA gyrase [1]; [9]): 15 to 25 µM
COc1cc(C(=O)Nc2scc(-c3ccc(Br)cc3)c2C(=O)O)cc(OC)c1OC [Compound 189]				100 (≈ 49.2 µg/mL)	completely inhibited	pIC50 (E. coli DNA gyrase [1]; [4]): 4.30 to 4.60
Cc1ccc([S+]([O-])c2ccc([N+](=O)[O-])c3nonc23)cc1 (stereo not shown) [Compound 222]			completely inhibited		completely inhibited	pIC50 (E. coli DNA gyrase [1]; [4]): 4.30 to 4.60
COC1C(C)OC(OC2CC(C)(O)Cc3cc4c(c(O)c32)C(=O)c2c(O)cc3c(c2C4=O)OC2OC3(C)C(O)C(N(C)C)C2O)C(OC)C1(C)OC (stereo not shown) [Compound 224]			completely inhibited		completely inhibited	pIC50 (E. coli DNA gyrase [1]; [4]): 4.30 to 4.60
CCN1C(=O)C(=CC=CN(C)c2ccccc2)SC1=S [Compound 227]			potently inhibited			pIC50 (E. coli DNA gyrase [1]; [8]): 3.70 to 4.30
CN(C)c1ccc(C=C2SC(=S)N(Cc3ccco3)C2=O)cc1 [Compound 228]			potently inhibited			pIC50 (E. coli DNA gyrase [1]; [8]): 3.70 to 4.30
Cc1cc(O)c2c(c1)C(=O)c1cc(O)cc(O)c1C2=O [Compound 242, Emodin]			completely inhibited			inhibition of E. coli DNA gyrase activities (E. coli DNA gyrase [1]): potently inhibited; pIC50 (E. coli DNA gyrase [1]; [8]): 3.70 to 4.30
O=C1OC2(c3ccccc31)c1cc(I)c(O)c(I)c1Oc1c2cc(I)c(O)c1I [Compound 253, Erythrosin B]			completely inhibited			pIC50 (E. coli DNA gyrase [1]; [10]): > 5.00
O=C1c2ccccc2C(=O)c2c1ccc(O)c2O [Compound 256, Alizarin]			completely inhibited			pIC50 (E. coli DNA gyrase [1]; [4]): 4.30 to 4.60; pIC50 (E. coli DNA gyrase [1]; [10]): > 5.00
